Experimental data reported in US9771340B2, “2-aminothiazole derivatives and methods of preparing and using the same” (Huazhong University of Science & Technology, priority 2011, dated 2017).

How the values were obtained:
SH-SY5Y cells [1] = experiment: Protection against neuronal apoptosis induced by hydrogen peroxide, MTT method; type: cell-based, human; settings: SH-SY5Y cells damaged by H2O2 1000 μM/L for 12 h; concentration of 1 μM
Method: Dopaminergic neuroblastoma tumor cells SH-SY5Y from human body were employed as experiment cells. H2O2 having a concentration of 1000 μM/L was used to treat SH-SY5Y cells for 12 h. Cell viability was approximately 50%, and a hydrogen peroxide damage model was determined MTT method was used to test the protection of TJ-M201018 (1), TJ-M201005 (2), TJ-M201041 (3), TJ-M201021 (4), and TJ-M201064 (5) on the cells damaged by hydrogen peroxide; results were shown in FIG. 3.

SH-SY5Y cells [2] = experiment: Protection against cobalt chloride-induced hypoxic injury, MTT method and microscope; type: cell-based, human; settings: cobalt chloride 600 μM/L for 24 h, FIG. 4, FIG. 6
Method: Dopaminergic neuroblastoma tumor cells SH-SY5Y from human body were employed as experiment cells. Cobalt chloride having a concentration of 600 μM/L was used to treat SH-SY5Y cells for 24 h. […] It was known from the results that the aminothiazole derivatives have good protection on the cell against hypoxic injuries caused by cobalt chloride. Observed under the microscope, cells after being damaged (FIG. 5) had unclear edges, and the number of the cells was decreased. […] The growth of the cells was good.

CD80 in RAW264.7 cells = settings: pre-incubated 2 h, then stimulus 12 h
Method: 4. Flow antibodies FITC-labeled anti-CD80, CD86 were added for testing.
Raw264.7: 48-well plate, cells number of […]. Each well was added with 1 mL of culture system. Different concentrations of TJ-M201021 were added, and cells were pre-incubated for 2 h. CPG was then added. A final concentration was 40 ug/mL. Cells were incubated for 12 h at a temperature of 37° C. in an incubator filled with CO2. Flow antibodies FITC-labeled anti-CD80 and CD86 were added for testing.

PARP-1 = target: T1, PARP-1 (Homo sapiens, UniProt P09874); settings: within a concentration of between 2 M and 10 mM (so in the source); positive control; cited from earlier work
T1 construct: purchased R&D 4677-096-K
T1 sequence (P09874 whole entry): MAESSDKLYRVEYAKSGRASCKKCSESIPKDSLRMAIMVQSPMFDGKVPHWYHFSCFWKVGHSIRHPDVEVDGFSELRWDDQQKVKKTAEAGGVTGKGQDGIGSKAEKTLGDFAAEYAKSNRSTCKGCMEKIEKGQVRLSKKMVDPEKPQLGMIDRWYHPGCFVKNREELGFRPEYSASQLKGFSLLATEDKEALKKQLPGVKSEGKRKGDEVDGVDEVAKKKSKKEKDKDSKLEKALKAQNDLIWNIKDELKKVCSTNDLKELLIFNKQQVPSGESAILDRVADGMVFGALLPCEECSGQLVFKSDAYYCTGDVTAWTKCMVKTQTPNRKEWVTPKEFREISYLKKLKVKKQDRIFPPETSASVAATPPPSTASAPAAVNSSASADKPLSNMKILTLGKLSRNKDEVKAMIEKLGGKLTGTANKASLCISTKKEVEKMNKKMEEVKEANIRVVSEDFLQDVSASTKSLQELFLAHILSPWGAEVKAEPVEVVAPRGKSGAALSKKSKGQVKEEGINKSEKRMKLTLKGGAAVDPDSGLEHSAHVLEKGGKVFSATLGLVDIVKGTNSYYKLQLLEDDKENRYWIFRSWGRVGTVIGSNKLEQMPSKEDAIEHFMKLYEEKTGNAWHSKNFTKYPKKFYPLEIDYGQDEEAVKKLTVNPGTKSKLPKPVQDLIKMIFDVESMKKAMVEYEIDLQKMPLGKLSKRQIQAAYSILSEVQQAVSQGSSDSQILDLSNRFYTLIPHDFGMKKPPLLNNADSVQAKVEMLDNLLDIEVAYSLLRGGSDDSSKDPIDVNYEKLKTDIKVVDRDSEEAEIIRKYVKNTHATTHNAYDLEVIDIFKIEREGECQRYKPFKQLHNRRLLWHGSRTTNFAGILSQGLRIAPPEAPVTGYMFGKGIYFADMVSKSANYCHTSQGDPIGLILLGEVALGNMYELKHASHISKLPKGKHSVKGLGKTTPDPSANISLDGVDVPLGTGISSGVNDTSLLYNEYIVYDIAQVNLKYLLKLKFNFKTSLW

Row | SMILES | cell viability (FIG. 3: increase rate of the cell viability) (SH-SY5Y cells [1]) [%] | protection on the cell against hypoxic injuries caused by cobalt chloride (SH-SY5Y cells [2]) | increase of the costimulatory molecules CD80 caused by TLR stimuli (LPS, CpG) (CD80 in RAW264.7 cells) | inhibition effect on the PARP-1 (PARP-1)
1 | COc1ccc(N2CCN(CCC(=O)Nc3nc(-c4ccccc4)cs3)CC2)cc1 [TJ-M201021] | 30 | a large number of cells existed and had clear edges | inhibited the increase of the costimulatory molecules CD80 | 
2 | NC(=O)c1cccc(N)c1 [3-AB] |  |  |  | had an inhibition effect on the PARP-1
